Patent US6420532B1, “Method of obtaining compositions comprising Y2 specific compounds” (Synaptic Pharmaceutical Corporation, priority 1994, dated 2002)

What was measured:
PYY-preferring receptor = conditions: rat small intestine; cited from earlier work
human Y2 receptor [1] = target: T1, human Y2 receptor (Homo sapiens, UniProt P49146); conditions: stably transfected NIH-3T3 cells
T1 sequence (P49146 1-381): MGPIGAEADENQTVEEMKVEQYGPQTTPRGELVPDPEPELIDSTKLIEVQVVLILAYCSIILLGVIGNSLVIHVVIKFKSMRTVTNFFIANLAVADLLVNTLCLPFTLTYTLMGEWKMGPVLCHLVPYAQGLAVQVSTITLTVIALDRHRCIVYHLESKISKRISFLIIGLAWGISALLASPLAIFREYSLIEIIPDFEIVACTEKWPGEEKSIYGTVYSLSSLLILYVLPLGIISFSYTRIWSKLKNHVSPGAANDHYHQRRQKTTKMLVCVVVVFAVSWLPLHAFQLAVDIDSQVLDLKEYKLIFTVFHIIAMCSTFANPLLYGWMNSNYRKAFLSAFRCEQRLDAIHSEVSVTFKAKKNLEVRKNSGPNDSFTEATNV

human Y2 receptor [2] = target: T1, human Y2 receptor; test: Inhibition of forskolin-stimulated cAMP accumulation (radioimmunoassay), stably transfected 293 cells; format: cell-based; parameters: expressed in transfected cells; conditions: maximum inhibition of cAMP accumulation relative to that produced by human NPY

## PYY: PYY, species not stated (Table 2, b7) [peptide YY]
PYY-preferring receptor
  higher affinity for PYY than for NPY: 5-10 fold

## Neuropeptide Y [NPY, human]
Human Y2 receptor [1]
  decrease of forskolin-stimulated cAMP accumulation: 50%
Human Y2 receptor [2]
  Function Emax: 100%
